Data reported in article PMC8287724, “Reducing Auditory Nerve Excitability by Acute Antagonism of Ca^2+-Permeable AMPA Receptors” (Frontiers in Synaptic Neuroscience, 2021).

Legend:
H1 histamine GPCR = target: T1, H1 histamine GPCR (Homo sapiens, UniProt P35367); assay: Radioligand binding assay, H1 receptor (transfected HEK-293 cells); settings: antagonist 1 μM
T1 construct: host or cells: HEK-293 cells
Protocol: (§1) Binding assays were conducted to evaluate the affinity of test compounds IEM-1460 and IEM-1925 (Eurofins Scientific, Inc.) for 15 targets: the human alpha-1 adrenergic (A1) receptor, histaminergic (H)-2 and−3 receptors, and muscarinic acetylcholine receptors-1 to−5 in transfected CHO cells by radioligand binding. The neuronal α4β2 and neuronal α7 cholinergic acetylcholine receptors were tested in transfected SH-SY5Y cells. The histaminergic-1 and−4 receptors were tested in transfected HEK-293 cells. Ion channel testing for AMPA and N-methyl-D-aspartate (NMDA) was performed in cells from the rat cerebral cortex. […] Non-specific binding was determined in the presence of 1 μM of DCPX. […] The filters were dried and then counted for radioactivity in a scintillation counter (Topcount, Packard) using a scintillation cocktail (Microscint 0, Packard). The results are expressed as a percent inhibition of the control radioligand specific binding: 100-[(measured specific binding)/(control specific binding) × 100]. […]
(§2) We tested the metabolic stability of the compounds with in vitro liver microsome stability assays (Table 1, right). […] We evaluated the compounds for potential toxicity with assays that test for inhibition of off-target ion channels and receptors. […]

[1] = Metabolic stability in vitro as summarised in the abstract (species not given); format: in vitro ADME; settings: mouse, guinea pig, human, liver microsomes, pH 7.4
Protocol: (§3) The stability of IEM-1460 in the presence of guinea pig liver microsomes (BioIVT, PN: X008070) or IEM-1925 in the presence of human (BioIVT, PN: M00101), mouse, or guinea pig liver microsomes was evaluated (Paraza Pharma, Inc., Montreal, Quebec, Canada). Both IEM-1925 and IEM-1460 were incubated with microsomes at 37°C for a total of 45 min. Working solutions were prepared in 100 mM potassium phosphate buffer and the final reaction was performed at pH 7.4 in 100 mM potassium phosphate buffer containing 0.5 mg/mL liver microsomal protein. Phase I metabolism was assessed by adding NADPH to a final concentration of 1 mM and collecting samples at time points 0, 5, 15, 30, and 45 min. All collected samples were quenched 1:1 with ice-cold stop solution (1 μM labetalol and 1 μM glyburide in acetonitrile) and centrifuged to remove precipitated protein. […] Samples were analyzed by LC-MS/MS using a Thermo Vanquish UPLC and a Thermo Quantis triple quadrupole mass spectrometer. […] Reference compounds were also assessed to ensure accuracy and precision of experimental protocol: imipramine and verapamil for human liver microsomes, diphenhydramine and verapamil for mouse liver microsomes, and warfarin and verapamil for guinea pig liver microsomes. […] Half-life was determined from a plot of the natural logarithm of the peak area ratio (remaining compound peak area/internal standard peak area) against time.

M5 acetylcholine GPCR = target: T2, M5 acetylcholine GPCR (Homo sapiens, UniProt P08912); assay: Radioligand binding assay, M5 receptor (transfected CHO cells); settings: antagonist 1 μM
T2 construct: host or cells: CHO cells
Protocol: as §1, §2

M3 acetylcholine GPCR = target: T3, M3 acetylcholine GPCR (Homo sapiens, UniProt P20309); assay: Radioligand binding assay, M3 receptor (transfected CHO cells); settings: antagonist 1 μM
T3 construct: host or cells: CHO cells
Protocol: as §1, §2

[2] = In vitro microsomal stability assay, mouse; format: in vitro ADME; settings: pH 7.4; mouse liver microsomes, 1 μM compound, 37°C; read-out: Half-life (min) Mean (N = 2)
Protocol: as §3, with “time. […]” for “time.”

M4 acetylcholine GPCR = target: T4, M4 acetylcholine GPCR (Homo sapiens, UniProt P08173); assay: Radioligand binding assay, M4 receptor (transfected CHO cells); settings: antagonist 1 μM
T4 construct: host or cells: CHO cells
Protocol: as §1, §2

[3] = target: T5, hERG potassium channel (Kv 11.1) (Homo sapiens, UniProt Q12809); assay: Radioligand binding assay, hERG potassium channel; settings: antagonist 1 μM, read-out: Mean% inhibition (N = 2) of radioligand binding
T5 construct: Eurofins Scientific, Inc
Protocol: as §1, §2

[4] = system: non-pyramidal cells (expressing mainly GluA2-lacking CP-AMPARs); set-up: method as in Tikhonov et al., 2000; settings: 2000, cited from earlier work; for IC50: rat hippocampus ref Tikhonov et al.; for apparent selectivity for CP- over CI-AMPARs: ref Tikhonov et al.
H2 histamine GPCR = target: T6, H2 histamine GPCR (Homo sapiens, UniProt P25021); assay: Radioligand binding assay, H2 receptor (transfected CHO cells); settings: antagonist 1 μM
T6 construct: host or cells: CHO cells
Protocol: as §1, §2

[5] = system: AMPA glutamate (GluA2-containing); assay: Radioligand binding assay, AMPA receptor (rat cerebral cortex); settings: antagonist 1 μM
Protocol: as §1, §2

H4 histamine GPCR = target: T7, H4 histamine GPCR (Homo sapiens, UniProt Q9H3N8); assay: Radioligand binding assay, H4 receptor (transfected HEK-293 cells); settings: antagonist 1 μM
T7 construct: host or cells: HEK-293 cells
Protocol: as §1, §2

T6 sequence (P25021 whole entry): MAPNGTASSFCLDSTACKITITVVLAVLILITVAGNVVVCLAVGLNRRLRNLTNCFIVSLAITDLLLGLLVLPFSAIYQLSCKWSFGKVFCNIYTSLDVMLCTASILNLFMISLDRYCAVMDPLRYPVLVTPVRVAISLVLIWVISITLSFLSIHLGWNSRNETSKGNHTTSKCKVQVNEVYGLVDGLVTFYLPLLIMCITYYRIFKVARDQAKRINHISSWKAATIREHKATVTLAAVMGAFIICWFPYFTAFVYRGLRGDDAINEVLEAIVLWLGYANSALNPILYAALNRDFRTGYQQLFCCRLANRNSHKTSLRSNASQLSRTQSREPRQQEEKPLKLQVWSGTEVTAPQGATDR
T1 sequence (P35367 whole entry): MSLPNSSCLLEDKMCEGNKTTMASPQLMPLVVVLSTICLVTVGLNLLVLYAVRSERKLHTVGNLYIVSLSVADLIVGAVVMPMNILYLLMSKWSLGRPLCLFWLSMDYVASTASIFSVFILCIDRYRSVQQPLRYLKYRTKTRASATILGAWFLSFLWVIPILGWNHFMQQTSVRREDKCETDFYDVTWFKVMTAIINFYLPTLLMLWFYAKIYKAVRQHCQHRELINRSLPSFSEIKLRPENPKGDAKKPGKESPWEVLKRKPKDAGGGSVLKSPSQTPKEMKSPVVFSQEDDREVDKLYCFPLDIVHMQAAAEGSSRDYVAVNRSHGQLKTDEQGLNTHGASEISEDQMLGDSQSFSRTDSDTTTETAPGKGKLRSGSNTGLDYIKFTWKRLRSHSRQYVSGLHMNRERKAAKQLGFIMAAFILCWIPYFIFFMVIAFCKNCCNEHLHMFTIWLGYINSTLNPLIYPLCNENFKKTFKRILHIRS
T3 sequence (P20309 whole entry): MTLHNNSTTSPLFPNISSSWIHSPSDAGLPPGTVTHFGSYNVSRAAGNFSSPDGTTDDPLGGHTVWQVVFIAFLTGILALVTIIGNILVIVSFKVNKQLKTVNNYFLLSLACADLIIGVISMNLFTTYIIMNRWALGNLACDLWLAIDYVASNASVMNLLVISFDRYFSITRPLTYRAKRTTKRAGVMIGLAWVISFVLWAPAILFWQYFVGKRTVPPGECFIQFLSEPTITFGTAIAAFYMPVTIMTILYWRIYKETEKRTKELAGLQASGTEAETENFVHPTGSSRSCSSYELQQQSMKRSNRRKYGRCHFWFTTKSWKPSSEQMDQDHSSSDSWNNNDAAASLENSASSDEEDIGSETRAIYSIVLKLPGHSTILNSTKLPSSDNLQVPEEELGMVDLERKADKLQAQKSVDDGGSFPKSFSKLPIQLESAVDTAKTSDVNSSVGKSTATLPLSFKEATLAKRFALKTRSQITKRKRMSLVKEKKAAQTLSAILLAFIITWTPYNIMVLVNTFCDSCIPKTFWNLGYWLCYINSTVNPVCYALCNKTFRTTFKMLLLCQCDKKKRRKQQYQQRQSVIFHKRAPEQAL
T7 sequence (Q9H3N8 whole entry): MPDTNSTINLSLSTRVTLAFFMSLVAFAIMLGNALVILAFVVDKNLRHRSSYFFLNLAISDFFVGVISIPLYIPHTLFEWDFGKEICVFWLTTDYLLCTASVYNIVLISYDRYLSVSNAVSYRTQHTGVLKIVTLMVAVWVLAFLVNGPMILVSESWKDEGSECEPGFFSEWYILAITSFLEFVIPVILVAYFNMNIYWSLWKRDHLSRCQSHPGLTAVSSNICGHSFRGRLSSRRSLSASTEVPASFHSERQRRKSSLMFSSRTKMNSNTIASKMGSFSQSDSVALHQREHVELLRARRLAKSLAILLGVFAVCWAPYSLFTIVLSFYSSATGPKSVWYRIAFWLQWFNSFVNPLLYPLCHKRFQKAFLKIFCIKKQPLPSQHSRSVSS
T4 sequence (P08173 whole entry): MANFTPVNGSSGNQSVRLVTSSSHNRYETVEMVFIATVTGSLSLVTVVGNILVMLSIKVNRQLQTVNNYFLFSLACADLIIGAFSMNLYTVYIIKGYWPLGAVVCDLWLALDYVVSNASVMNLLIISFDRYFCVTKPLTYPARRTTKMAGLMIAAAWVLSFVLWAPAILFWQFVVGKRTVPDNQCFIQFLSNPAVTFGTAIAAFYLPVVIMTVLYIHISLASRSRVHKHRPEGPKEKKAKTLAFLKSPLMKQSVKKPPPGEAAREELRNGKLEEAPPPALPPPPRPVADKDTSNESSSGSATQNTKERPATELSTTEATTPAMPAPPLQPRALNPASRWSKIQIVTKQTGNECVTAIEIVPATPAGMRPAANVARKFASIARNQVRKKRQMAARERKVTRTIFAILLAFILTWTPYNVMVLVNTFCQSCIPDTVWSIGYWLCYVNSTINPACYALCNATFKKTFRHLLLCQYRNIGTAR
T5 sequence (Q12809 whole entry): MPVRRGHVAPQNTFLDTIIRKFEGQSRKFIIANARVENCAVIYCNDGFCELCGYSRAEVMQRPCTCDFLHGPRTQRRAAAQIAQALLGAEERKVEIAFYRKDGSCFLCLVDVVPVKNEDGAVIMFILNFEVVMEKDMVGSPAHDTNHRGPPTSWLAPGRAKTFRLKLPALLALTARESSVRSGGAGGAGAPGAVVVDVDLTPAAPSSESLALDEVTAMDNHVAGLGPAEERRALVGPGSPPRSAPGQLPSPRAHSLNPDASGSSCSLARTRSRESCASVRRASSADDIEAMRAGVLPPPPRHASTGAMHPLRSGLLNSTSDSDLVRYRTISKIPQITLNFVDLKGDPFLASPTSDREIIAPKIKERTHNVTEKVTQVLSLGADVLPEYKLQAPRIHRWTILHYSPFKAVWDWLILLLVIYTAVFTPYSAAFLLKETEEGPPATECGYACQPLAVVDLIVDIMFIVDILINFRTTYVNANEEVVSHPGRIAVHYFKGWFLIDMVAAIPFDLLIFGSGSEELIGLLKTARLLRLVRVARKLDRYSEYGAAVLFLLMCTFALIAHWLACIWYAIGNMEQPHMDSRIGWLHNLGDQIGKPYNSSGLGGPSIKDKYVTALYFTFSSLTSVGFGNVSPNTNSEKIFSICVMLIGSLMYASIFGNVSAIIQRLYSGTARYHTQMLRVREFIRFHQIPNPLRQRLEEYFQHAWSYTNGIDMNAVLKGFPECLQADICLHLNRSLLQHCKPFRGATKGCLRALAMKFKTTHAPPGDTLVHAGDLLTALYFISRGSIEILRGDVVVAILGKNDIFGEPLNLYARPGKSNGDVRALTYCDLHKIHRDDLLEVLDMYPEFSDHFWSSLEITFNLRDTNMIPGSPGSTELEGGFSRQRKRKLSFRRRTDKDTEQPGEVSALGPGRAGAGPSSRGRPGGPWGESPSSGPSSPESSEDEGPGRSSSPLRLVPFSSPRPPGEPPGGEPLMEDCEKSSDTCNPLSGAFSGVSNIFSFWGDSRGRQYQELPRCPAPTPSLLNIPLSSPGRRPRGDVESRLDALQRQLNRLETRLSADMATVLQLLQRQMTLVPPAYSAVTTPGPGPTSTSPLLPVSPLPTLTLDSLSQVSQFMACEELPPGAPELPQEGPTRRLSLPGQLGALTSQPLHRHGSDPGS
T2 sequence (P08912 whole entry): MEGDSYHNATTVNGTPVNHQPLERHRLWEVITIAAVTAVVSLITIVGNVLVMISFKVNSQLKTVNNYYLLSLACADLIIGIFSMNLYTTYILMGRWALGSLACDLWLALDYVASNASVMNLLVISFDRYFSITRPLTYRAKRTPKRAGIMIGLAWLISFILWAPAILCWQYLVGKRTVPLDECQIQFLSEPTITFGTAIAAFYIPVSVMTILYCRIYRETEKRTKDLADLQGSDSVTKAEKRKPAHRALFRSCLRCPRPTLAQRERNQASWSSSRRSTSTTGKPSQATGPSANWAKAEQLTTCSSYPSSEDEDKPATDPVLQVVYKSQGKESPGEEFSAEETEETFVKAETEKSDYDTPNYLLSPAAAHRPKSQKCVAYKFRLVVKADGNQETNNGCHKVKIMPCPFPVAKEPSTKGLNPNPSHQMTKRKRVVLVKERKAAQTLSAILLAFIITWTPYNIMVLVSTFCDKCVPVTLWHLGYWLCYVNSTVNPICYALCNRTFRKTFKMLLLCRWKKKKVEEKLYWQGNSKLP

Row | Structure (SMILES) | Mean% inhibition (N = 2) of radioligand binding (H1 histamine GPCR) [%] | half-life [1] [h] | Mean% inhibition (N = 2) of radioligand binding (M5 acetylcholine GPCR) [%] | Mean% inhibition (N = 2) of radioligand binding (M3 acetylcholine GPCR) [%] | half-life at 1 μM [2] [min] | Mean% inhibition (N = 2) of radioligand binding (M4 acetylcholine GPCR) [%] | inhibition at 1 μM [3] [%] | IC50 [4] [nM] | apparent selectivity for CP- over CI-AMPARs [4] | Mean% inhibition (N = 2) of radioligand binding (H2 histamine GPCR) [%] | Mean% inhibition (N = 2) of radioligand binding [5] [%] | Mean% inhibition (N = 2) of radioligand binding (H4 histamine GPCR) [%]
1 | NCCCCCNC1(c2ccccc2)CCCCC1 [IEM-1925] | <1 | > 5 | <5 | <5 | > 300 | 19 | < 1 | ~1000 | ~ 300 fold | <1 | 9.5 | <5
2 | C[N+](C)(C)CCCCCNCC12CC3CC(CC(C3)C1)C2 [IEM-1460] | <1 | > 5 | 5.2 | 15 | > 300 | 37 | < 5 | ~3000 | ~ 300 fold | <1 | <1 | <1
